Experimental data as given in patent US7241791B2, “Substituted 4-(indazol-3-yl)phenols” (Wyeth, priority 2002, dated 2007).
Like-named read-outs stand apart in the source and are kept apart here.

Molecular target: T1, human ERα (Homo sapiens, UniProt P03372)
T1 sequence (P03372 1-595): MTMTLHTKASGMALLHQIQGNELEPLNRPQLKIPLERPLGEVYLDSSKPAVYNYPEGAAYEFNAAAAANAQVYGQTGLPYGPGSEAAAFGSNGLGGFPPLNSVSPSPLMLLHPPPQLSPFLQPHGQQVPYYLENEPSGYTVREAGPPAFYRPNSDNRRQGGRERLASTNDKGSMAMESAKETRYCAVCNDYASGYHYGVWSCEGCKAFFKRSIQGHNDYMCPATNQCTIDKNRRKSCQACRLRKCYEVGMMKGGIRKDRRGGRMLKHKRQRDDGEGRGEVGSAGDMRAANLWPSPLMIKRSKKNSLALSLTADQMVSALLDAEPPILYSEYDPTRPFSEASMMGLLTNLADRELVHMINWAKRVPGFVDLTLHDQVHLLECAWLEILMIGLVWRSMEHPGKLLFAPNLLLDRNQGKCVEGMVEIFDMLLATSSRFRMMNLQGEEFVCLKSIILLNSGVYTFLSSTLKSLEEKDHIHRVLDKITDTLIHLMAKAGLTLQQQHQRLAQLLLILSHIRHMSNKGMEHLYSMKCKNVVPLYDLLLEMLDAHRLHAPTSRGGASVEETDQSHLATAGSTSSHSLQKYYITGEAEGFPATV
Assay: NF-κB luciferase reporter (ER/NF-KB-luc) in Ad5-wt-hERα infected HAECT-1 cells
Settings: for IC50: ER/NF-KB-luc IC50, Ad5-wt-ER infected HAECT-1 cells, IL-1β

[1] = HAECT1, read-out: ER/NF-KB-luc % E2, efficacy relative to the maximal inhibition observed with E2

Structure (SMILES) | IC50 [nM] | Emax [1] [%] | Emax (HAECT1, read-out: ER/NF-KB-luc % E2) [%]
CCCn1nc(-c2ccc(O)cc2)c2cccc(-c3ccc(O)cc3)c21 [Example 103, 4-[3-(4-hydroxyphenyl)-1-propyl-1H-indazole-7-yl]phenol] | 138 | 79 | –
Cc1cc(O)ccc1-c1nn(C(C)C)c2c(-c3ccco3)cccc12 [Example 254, 4-[7-(2-furyl)-1-isopropyl-1H-indazol-3-yl]-3-methylphenol] | 27 | 56 | –
Oc1ccc(-c2nn(-c3cccc(Cl)c3)c3cc(O)ccc23)c(O)c1 [Example 6, 4-[1-(3-chlorophenyl)-6-hydroxy-1H-indazol-3-yl]benzene-1,3-diol] | – | 85 | –
CCCn1nc(-c2ccc(O)cc2)c2cccc(N3CCOCC3)c21 [Example 105, 4-(7-Morpholin-4-yl-1-propyl-1H-indazole-3-yl)phenol] | 918 | 66 | –
Oc1ccc(-c2nn(Cc3ccccc3)c3c(C(F)(F)F)cccc23)c(O)c1 [Example 143, 4-[1-benzyl-7-(trifluoromethyl)-1H-indazol-3-yl]benzene-1,3-diol] | 310 | 65 | –
CC(C)n1nc(-c2ccc(O)cc2)c2cccc(-c3ccc(-c4ccccc4)cc3)c21 [Example 233, 4-[7-(1,1′-biphenyl-4-yl)-1-isopropyl-1H-indazol-3-yl]phenol] | 87 | 81 | –
Oc1ccc(-c2nn(-c3ccc(F)c(Cl)c3)c3cc(O)ccc23)c(O)c1 [Example 24, 4-[1-(3-chloro-4-fluorophenyl)-6-hydroxy-1H-indazol-3-yl]benzene-1,3-diol] | 63 | 83 | –
CCCn1nc(-c2ccc(O)cc2O)c2ccc(O)cc21 [Example 1, 4-(6-hydroxy-1-propyl-1H-indazol-3-yl)benzene-1,3-diol] | – | 74 | –
Cc1ccccc1-c1cccc2c(-c3ccc(O)cc3)nn(C3CCCC3)c12 [Example 245, 4-[1-cyclopentyl-7-(2-methylphenyl)-1H-indazol-3-yl]phenol] | 16 | 70 | –
CC(C)Cn1nc(-c2ccc(O)cc2O)c2cccc(F)c21 [Example 94, 4-(7-fluoro-1-isobutyl-1H-indazole-3-yl)benzene-1,3-diol] | 332 | 86 | –
C=CCn1nc(-c2ccc(O)cc2C)c2cccc(Cl)c21 [Example 82, 4-(1-allyl-7-chloro-1H-indazol-3-yl)-3-methylphenol] | 191 | 68 | –
CCCn1nc(-c2ccc(O)cc2)c2cccc(-c3ccc(F)cc3)c21 [Example 104, 4-[7-(4-Fluorophenyl)-1-propyl-1H-indazole-3-yl]phenol] | 250 | 81 | –
Cc1cc(O)ccc1-c1nn(C(C)C)c2c(C(F)(F)F)cccc12 [Example 83, 4-[1-isopropyl-7-(trifluoromethyl)-1H-indazole-3-yl]-3-methylphenol] | – | 82 | –
CC(C)Cn1nc(-c2ccc(O)cc2O)c2cccc(C(F)(F)F)c21 [Example 68, 4-[1-isobutyl-7-(trifluoromethyl)-1H-indazol-3-yl]benzene-1,3-diol] | 56 | 74 | –
CCCn1nc2c(F)cccc2c1-c1ccc(O)cc1C [Example 92, 4-(7-fluoro-2-propyl-2H-indazole-3-yl)-3-methylphenol] | 228 | 87 | –
CC(C)n1nc2c(F)cccc2c1-c1ccc(O)cc1O [Example 89, 4-(7-fluoro-2-isopropyl-2H-indazole-3-yl)benzene-1,3-diol] | 435 | 97 | –
Cc1cc(O)ccc1-c1nn(C(C)C)c2c(-c3ccccc3C)cccc12 [Example 255, 4-[1-isopropyl-7-(2-methylphenyl)-1H-indazol-3-yl]-3-methyl-phenol] | 4 | 89 | –
CCCn1nc(-c2ccc(O)cc2)c2cccc(Cl)c21 [Example 43, 4-(7-chloro-1-propyl-1H-indazol-3-yl)phenol] | – | 79 | –
Oc1ccc(-c2nn(C3CCCC3)c3c(-c4ccc(C(F)(F)F)cc4)cccc23)cc1 [Example 237, 4-{1-cyclopentyl-7-[4-(trifluoromethyl)phenyl]-1H-indazol-3-yl}-phenol] | 480 | 79 | –
CCCCCn1nc2c(Cl)cccc2c1-c1ccc(O)cc1 [Example 42, 4-[7-chloro-2-pentyl-2H-indazol-3-yl]phenol] | 190 | 102 | –
CC(=O)Oc1ccc(-c2nn(C3CCCC3)c3c(F)cccc23)cc1 [Example 114, 4-(1-cyclopentyl-7-fluoro-1H-indazol-3-yl)phenyl acetate] | 268 | 67 | –

Structure (SMILES) | IC50 [nM] | Emax [1] [%] | Emax (HAECT1, read-out: ER/NF-KB-luc % E2) [%]
CC(C)n1nc(-c2ccc(O)cc2O)c2cccc(Cl)c21 [Example 80, 4-(7-chloro-1-isopropyl-1H-indazol-3-yl)benzene-1,3-diol] | 18 | 48 | –
Cc1cc(O)ccc1-c1nn(C(C)C)c2c(-c3ccc(O)c(O)c3)cccc12 [Example 250, 4-[3-(4-hydroxy-2-methylphenyl)-1-isopropyl-1H-indazol-7-yl]-benzene-1,2-diol] | – | 80 | –
CCc1ccc(-c2cccc3c(-c4ccc(O)cc4)nn(C(C)C)c23)cc1 [Example 232, 4-[7-(4-ethylphenyl)-1-isopropyl-1H-indazol-3-yl]phenol] | 143 | 75 | –
Oc1ccc(-c2nn(-c3cccc(F)c3)c3cc(O)ccc23)c(O)c1 [Example 21, 4-[1-(3-fluorophenyl)-6-hydroxy-1H-indazol-3-yl]benzene-1,3-diol] | – | – | 73
Cc1cc(O)ccc1-c1nn(C(C)C)c2c(-c3ccc(-c4ccccc4)cc3)cccc12 [Example 252, 4-[7-(1,1′-biphenyl-4-yl)-1-isopropyl-1H-indazol-3-yl]-3-methyl-phenol] | 56 | 59 | –
Oc1ccc(-c2nn(C3CCCCC3)c3c(C(F)(F)F)cccc23)cc1 [Example 32, 4-[1-cyclohexyl-7-(trifluoromethyl)-1H-indazol-3-yl]phenol] | 65 | 91 | –
CCCCn1nc(-c2ccc(O)cc2)c2cccc(C(F)(F)F)c21 [Example 219, 4-[1-butyl-7-(trifluoromethyl)-1H-indazol-3-yl]phenol] | 369 | 104 | –
Oc1ccc(-c2nn(C3CCCC3)c3c(-c4ccccc4Cl)cccc23)cc1 [Example 243, 4-[7-(2-chlorophenyl)-1-cyclopentyl-1H-indazol-3-yl]phenol] | 142 | 83 | –
Cc1cc(O)ccc1-c1nn(C2CCCC2)c2c(Cl)cccc12 [Example 84, 4-(7-chloro-1-cyclopentyl-1H-indazole-3-yl)-3-methylphenol] | 36 | 75 | –
CCc1ccc(-c2cccc3c(-c4ccc(O)cc4C)nn(C(C)C)c23)cc1 [Example 251, 4-[7-(4-ethylphenyl)-1-isopropyl-1H-indazol-3-yl]-3-methylphenol] | 24 | 57 | –
CSc1ccc(-c2cccc3c(-c4ccc(O)cc4)nn(C(C)C)c23)cc1 [Example 228, 4-{1-isopropyl-7-[4-(methylthio)phenyl]-1H-indazol-3-yl}phenol] | 75 | 83 | –
Oc1ccc(-c2nn(-c3ccsc3)c3c(Cl)cccc23)cc1 [Example 101, 4-(7-chloro-1-thien-3-yl-1H-indazole-3-yl)phenol] | 505 | 61 | –
Cc1cc(O)ccc1-c1nn(CC(C)C)c2c(F)cccc12 [Example 96, 4-(7-fluoro-1-isobutyl-1H-indazole-3-yl)-3-methylphenol] | 88 | 78 | –
Cc1cc(-c2nn(C3CCCC3)c3c(F)cccc23)ccc1O [Example 63, 4-(1-cyclopentyl-7-fluoro-1H-indazol-3-yl)-2-methylphenol] | 1880 | 158 | –
Oc1ccc(-c2nn(C3CCC3)c3c(C(F)(F)F)cccc23)c(O)c1 [Example 70, 4-[1-cyclobutyl-7-(trifluoromethyl)-1H-indazol-3-yl]benzene-1,3-diol] | 14 | 76 | –
Cc1cc(O)ccc1-c1nn(C2CCCC2)c2c(-c3ccccc3Cl)cccc12 [Example 262, 4-[7-(2-chlorophenyl)-1-cyclopentyl-1H-indazol-3-yl]-3-methyl-phenol] | 8 | 75 | –
Oc1ccc(-c2nn(-c3ccccc3F)c3cc(O)ccc23)c(O)c1 [Example 22, 4-[1-(2-fluorophenyl)-6-hydroxy-1H-indazol-3-yl]benzene-1,3-diol] | 50 | 73 | –
CCCn1nc2c(F)cccc2c1-c1ccc(O)cc1 [Example 54, 4-(7-fluoro-2-propyl-2H-indazol-3-yl)phenol] | 393 | 77 | –
Oc1ccc(-c2nn(C3CCCC3)c3c(F)cccc23)c(O)c1 [Example 88, 4-(1-cyclopentyl-7-fluoro-1H-indazole-3-yl)benzene-1,3-diol] | 419 | 74 | –
CC(C)(C)C(=O)Oc1ccc(-c2nn(C3CCCC3)c3c(F)cccc23)cc1 [Example 112, 4-(1-cyclopentyl-7-fluoro-1H-indazol-3-yl)phenyl pivalate] | 667 | 48 | –
